# Measured values: publication PMC5218480 (PLoS ONE, 2017)
# System: MV-4-11 cells
# Test: Gene expression microarray analysis (Affymetrix PrimeView) and GSEA
# Assay type: cell-based, human
# Set-up: RFU PODN (11730768_x_at) / Fold change /veh PODN (11730768_x_at) / RFU LINC00158 (11744669_a_at) / Fold change /veh LINC00158 (11744669_a_at) / RFU DUSP10 (11751237_a_at) / Fold change /veh DUSP10 (11751237_a_at) / RFU ID3 (11757404_x_at) / Fold change /veh ID3 (11757404_x_at) / RFU PLEKHG5 (11737974_s_at) / Fold change /veh PLEKHG5 (11737974_s_at) / RFU LRRC4B (11730491_at) / Fold change /veh LRRC4B (11730491_at) / RFU GIMAP4 (11747438_a_at) / Fold change /veh GIMAP4 (11747438_a_at) / RFU KRT8 (11758183_x_at) / Fold change /veh KRT8 (11758183_x_at) / RFU CNN1 (11734310_a_at) / Fold change /veh CNN1 (11734310_a_at) / RFU VPS37D (11726825_at) / Fold change /veh VPS37D (11726825_at) / RFU C10orf10 (11716522_x_at) / Fold change /veh C10orf10 (11716522_x_at) / RFU KIR2DL2 /// KIR2DL4 /// KIR2DL5A /// KIR2DL5B /// KIR2DS1 /// KIR2DS2 /// KIR2DS3 /// KIR2DS4 /// KIR3DL3 /// KIR3DL3 /// KIR3DS1 (11738374_at) / Fold change /veh KIR2DL2 /// KIR2DL4 /// KIR2DL5A /// KIR2DL5B /// KIR2DS1 /// KIR2DS2 /// KIR2DS3 /// KIR2DS4 /// KIR3DL3 /// KIR3DL3 /// KIR3DS1 (11738374_at) / RFU C1QL1 (11718748_at) / Fold change /veh C1QL1 (11718748_at) / RFU TMPRSS4 (11747572_a_at) / Fold change /veh TMPRSS4 (11747572_a_at) / RFU HAMP (11756126_x_at) / Fold change /veh HAMP (11756126_x_at) / RFU RNFT2 (11725882_a_at) / Fold change /veh RNFT2 (11725882_a_at) / RFU NR4A2 (11747474_a_at) / Fold change /veh NR4A2 (11747474_a_at) / RFU ABCC12 (11746883_a_at) / Fold change /veh ABCC12 (11746883_a_at) / RFU TMEM136 (11760407_x_at) / Fold change /veh TMEM136 (11760407_x_at) / RFU CLDN22 /// WWC2 (11732394_at) / Fold change /veh CLDN22 /// WWC2 (11732394_at) / RFU HLA-DPB1 (11760878_x_at) / Fold change /veh HLA-DPB1 (11760878_x_at) / RFU SPINT1 (11716480_a_at) / Fold change /veh SPINT1 (11716480_a_at) / RFU GAP43 (11754022_s_at) / Fold change /veh GAP43 (11754022_s_at) / RFU A4GNT (11735810_at) / Fold change /veh A4GNT (11735810_at) / RFU PRB3 (11715151_x_at) / Fold change /veh PRB3 (11715151_x_at) / RFU TUBB4B (11761932_at) / Fold change /veh TUBB4B (11761932_at) / RFU CAPN14 (11732068_a_at) / Fold change /veh CAPN14 (11732068_a_at) / RFU TMCC2 (11721928_a_at) / Fold change /veh TMCC2 (11721928_a_at) / RFU IRGQ (11745062_a_at) / Fold change /veh IRGQ (11745062_a_at) / RFU FAM174B (11720279_a_at) / Fold change /veh FAM174B (11720279_a_at) / RFU TMPRSS4 (11748680_a_at) / Fold change /veh TMPRSS4 (11748680_a_at) / RFU FAM212B (11763350_a_at) / Fold change /veh FAM212B (11763350_a_at) / RFU PLEKHG5 (11743358_a_at) / Fold change /veh PLEKHG5 (11743358_a_at) / RFU ZSCAN30 (11745921_a_at) / Fold change /veh ZSCAN30 (11745921_a_at) / RFU CMKLR1 (11741424_a_at) / Fold change /veh CMKLR1 (11741424_a_at) / RFU LOC101060620 /// MAPK8IP1 (11723275_at) / Fold change /veh LOC101060620 /// MAPK8IP1 (11723275_at) / RFU SPTSSB (11747773_x_at) / Fold change /veh SPTSSB (11747773_x_at) / RFU PRSS12 (11739890_at) / Fold change /veh PRSS12 (11739890_at) / RFU BIN1 (11741810_x_at) / Fold change /veh BIN1 (11741810_x_at) / RFU WNT11 (11732464_a_at) / Fold change /veh WNT11 (11732464_a_at) / RFU C10orf10 (11716521_a_at) / Fold change /veh C10orf10 (11716521_a_at) / RFU C5orf56 (11738089_at) / Fold change /veh C5orf56 (11738089_at) / RFU CYB561 (11721691_x_at) / Fold change /veh CYB561 (11721691_x_at) / RFU ANKRD19P (11752326_a_at) / Fold change /veh ANKRD19P (11752326_a_at) / RFU OR2T12 /// OR2T33 /// OR2T8 (11738714_s_at) / Fold change /veh OR2T12 /// OR2T33 /// OR2T8 (11738714_s_at) / RFU VCAN (11748164_a_at) / Fold change /veh VCAN (11748164_a_at) / RFU JSRP1 (11732532_at) / Fold change /veh JSRP1 (11732532_at) / RFU KRTAP10-11 (11738290_x_at) / Fold change /veh KRTAP10-11 (11738290_x_at) / RFU MYO3A (11730013_a_at) / Fold change /veh MYO3A (11730013_a_at) / RFU EBF3 (11725865_a_at) / Fold change /veh EBF3 (11725865_a_at) / RFU CAMK2N1 (11719241_x_at) / Fold change /veh CAMK2N1 (11719241_x_at) / RFU C5orf56 (11738088_a_at) / Fold change /veh C5orf56 (11738088_a_at) / RFU OLFML3 (11715873_a_at) / Fold change /veh OLFML3 (11715873_a_at) / RFU LOC100653217 /// NTM (11731650_a_at) / Fold change /veh LOC100653217 /// NTM (11731650_a_at) / RFU MAPK11 (11762145_a_at) / Fold change /veh MAPK11 (11762145_a_at) / RFU FIZ1 (11724087_x_at) / Fold change /veh FIZ1 (11724087_x_at) / RFU OASL (11726364_x_at) / Fold change /veh OASL (11726364_x_at) / RFU SOX15 (11748057_x_at) / Fold change /veh SOX15 (11748057_x_at) / RFU CD79A (11719716_a_at) / Fold change /veh CD79A (11719716_a_at) / RFU HIST1H1D (11736915_at) / Fold change /veh HIST1H1D (11736915_at) / RFU CASKIN2 (11723855_a_at) / Fold change /veh CASKIN2 (11723855_a_at) / RFU LOC730098 (11760151_x_at) / Fold change /veh LOC730098 (11760151_x_at) / RFU OR4N2 (11742367_at) / Fold change /veh OR4N2 (11742367_at) / RFU PRRT2 (11749266_a_at) / Fold change /veh PRRT2 (11749266_a_at) / RFU SNX32 (11753110_a_at) / Fold change /veh SNX32 (11753110_a_at) / RFU CDHR5 (11726645_a_at) / Fold change /veh CDHR5 (11726645_a_at) / RFU RCAN1 (11760418_a_at) / Fold change /veh RCAN1 (11760418_a_at) / RFU FAM167A (11723789_a_at) / Fold change /veh FAM167A (11723789_a_at) / RFU FAM26E (11764081_at) / Fold change /veh FAM26E (11764081_at) / RFU ISYNA1 (11749810_s_at) / Fold change /veh ISYNA1 (11749810_s_at) / RFU ACY1 (11761880_at) / Fold change /veh ACY1 (11761880_at) / RFU 11764098_at / Fold change /veh 11764098_at / RFU SAMD14 (11745864_x_at) / Fold change /veh SAMD14 (11745864_x_at) / RFU NPB (11741838_a_at) / Fold change /veh NPB (11741838_a_at) / RFU TMPRSS6 (11731388_a_at) / Fold change /veh TMPRSS6 (11731388_a_at) / RFU KRTAP10-2 (11738614_at) / Fold change /veh KRTAP10-2 (11738614_at) / RFU ARHGAP8 /// PRR5-ARHGAP8 (11727945_x_at) / Fold change /veh ARHGAP8 /// PRR5-ARHGAP8 (11727945_x_at) / RFU KRTAP5-7 /// NADSYN1 (11734609_at) / Fold change /veh KRTAP5-7 /// NADSYN1 (11734609_at) / RFU RASL12 (11751679_a_at) / Fold change /veh RASL12 (11751679_a_at) / RFU CDKN2B (11736163_a_at) / Fold change /veh CDKN2B (11736163_a_at) / RFU PRF1 (11729649_at) / Fold change /veh PRF1 (11729649_at) / RFU, ZNF638 /// ZNF638-IT1 / Fold change vs veh, ZNF638 /// ZNF638-IT1 / RFU, PANK3 / Fold change vs veh, PANK3 / RFU, SH3YL1 / Fold change vs veh, SH3YL1 / RFU, ZEB2 / Fold change vs veh, ZEB2 / RFU, NRIP1 / Fold change vs veh, NRIP1 / RFU, PTTG1IP / Fold change vs veh, PTTG1IP / RFU, CAPN2 / Fold change vs veh, CAPN2 / RFU, MED14 / Fold change vs veh, MED14 / RFU, SNORA58 / Fold change vs veh, SNORA58 / RFU, C1orf63 / Fold change vs veh, C1orf63 / RFU, LRRFIP1 / Fold change vs veh, LRRFIP1 / RFU, NDUFAF7 / Fold change vs veh, NDUFAF7 / RFU, SLC12A2 / Fold change vs veh, SLC12A2 / RFU, IBTK / Fold change vs veh, IBTK / RFU, ESF1 / Fold change vs veh, ESF1 / Fold change vs veh, TMEM50B / RFU, TAOK1 / Fold change vs veh, TAOK1 / RFU, ACBD3 / Fold change vs veh, ACBD3 / RFU, TMA16 / Fold change vs veh, TMA16 / RFU, RWDD3 / Fold change vs veh, RWDD3 / RFU, BCAT1 / Fold change vs veh, BCAT1 / RFU, EDEM3 / Fold change vs veh, EDEM3 / RFU, TMEM33 / Fold change vs veh, TMEM33 / RFU, WDR75 / Fold change vs veh, WDR75 / RFU, AHCTF1 / Fold change vs veh, AHCTF1 / RFU, TFRC / Fold change vs veh, TFRC / RFU, ZDHHC17 / Fold change vs veh, ZDHHC17 / RFU, NOM1 / Fold change vs veh, NOM1 / RFU, ARL8B / Fold change vs veh, ARL8B / RFU, ZBTB11 / Fold change vs veh, ZBTB11 / RFU, TAMM41 / Fold change vs veh, TAMM41 / RFU, KIAA1704 /// LOC100996395 / Fold change vs veh, KIAA1704 /// LOC100996395 / RFU, ING1 / Fold change vs veh, ING1 / RFU, TRMT61B / Fold change vs veh, TRMT61B / RFU, FUBP3 / Fold change vs veh, FUBP3 / RFU, TP53 / Fold change vs veh, TP53 / RFU, TNKS2 / Fold change vs veh, TNKS2 / RFU, ZFP14 / Fold change vs veh, ZFP14 / RFU, ACTR2 / Fold change vs veh, ACTR2 / RFU, PPP3R1 / Fold change vs veh, PPP3R1 / RFU, PIK3R1 / Fold change vs veh, PIK3R1 / RFU, HNRNPA1 / Fold change vs veh, HNRNPA1 / RFU, RNF170 / Fold change vs veh, RNF170 / RFU, ZNF28 / Fold change vs veh, ZNF28 / RFU, RNGTT / Fold change vs veh, RNGTT / RFU, OGT / Fold change vs veh, OGT / RFU, BRD1 / Fold change vs veh, BRD1 / RFU, MARS / Fold change vs veh, MARS / RFU, ZNF655 / Fold change vs veh, ZNF655 / RFU, FAHD1 / Fold change vs veh, FAHD1 / RFU, BDP1 / Fold change vs veh, BDP1 / RFU, LRRCC1 / Fold change vs veh, LRRCC1 / RFU, ARID1A / Fold change vs veh, ARID1A / RFU, ZNF146 / Fold change vs veh, ZNF146 / RFU, ZNF330 / Fold change vs veh, ZNF330 / RFU, GPN3 / Fold change vs veh, GPN3 / RFU, C9orf123 / Fold change vs veh, C9orf123 / RFU, N4BP2L2 / Fold change vs veh, N4BP2L2 / RFU, ARFIP1 / Fold change vs veh, ARFIP1 / RFU, FAM179B / Fold change vs veh, FAM179B / RFU, BCL10 / Fold change vs veh, BCL10 / RFU, UHRF1BP1L / Fold change vs veh, UHRF1BP1L / RFU, BET1 / Fold change vs veh, BET1 / RFU, CNOT2 / Fold change vs veh, CNOT2 / RFU, ZNF268 / Fold change vs veh, ZNF268 / Fold change vs veh, ZNF507 / RFU, DGCR2 / Fold change vs veh, DGCR2 / RFU, WDSUB1 / Fold change vs veh, WDSUB1 / Fold change vs veh, HSP90B1 /// MIR3652 / RFU, ADSS / Fold change vs veh, ADSS / RFU, GK / Fold change vs veh, GK / RFU, ZNF148 / Fold change vs veh, ZNF148 / RFU, TAF9 / Fold change vs veh, TAF9 / RFU, SLC1A5 / Fold change vs veh, SLC1A5 / RFU, SLMO2 / Fold change vs veh, SLMO2 / RFU, ABCC4 / Fold change vs veh, ABCC4 / RFU, LOC101060439 /// RAP1B / Fold change vs veh, LOC101060439 /// RAP1B / RFU, RFX7 / Fold change vs veh, RFX7 / RFU, GTPBP10 / Fold change vs veh, GTPBP10 / RFU, CNEP1R1 / Fold change vs veh, CNEP1R1 / RFU, BIVM-ERCC5 /// ERCC5 / Fold change vs veh, BIVM-ERCC5 /// ERCC5 / RFU, ILF3 / Fold change vs veh, ILF3 / RFU 11762660_at / Fold change /veh 11762660_at / RFU VCAN (11757783_s_at) / Fold change /veh VCAN (11757783_s_at) / RFU DDX43 (11728927_at) / Fold change /veh DDX43 (11728927_at) / RFU KRT8 (11758188_x_at) / Fold change /veh KRT8 (11758188_x_at) / RFU NKD1 (11759106_at) / Fold change /veh NKD1 (11759106_at) / RFU SRD5A1 (11742802_a_at) / Fold change /veh SRD5A1 (11742802_a_at) / RFU TPSAB1 /// TPSB2 (11721975_s_at) / Fold change /veh TPSAB1 /// TPSB2 (11721975_s_at) / RFU GSTM3 (11746129_a_at) / Fold change /veh GSTM3 (11746129_a_at) / RFU IL23R (11737362_x_at) / Fold change /veh IL23R (11737362_x_at) / RFU TMEM51 (11727254_a_at) / Fold change /veh TMEM51 (11727254_a_at) / RFU PIWIL2 (11732686_x_at) / Fold change /veh PIWIL2 (11732686_x_at) / RFU ORM1 (11744905_x_at) / Fold change /veh ORM1 (11744905_x_at) / RFU CCDC152 (11743942_at) / Fold change /veh CCDC152 (11743942_at) / RFU ECM1 (11717891_a_at) / Fold change /veh ECM1 (11717891_a_at) / RFU IL23R (11748794_a_at) / Fold change /veh IL23R (11748794_a_at) / RFU TNFAIP8L3 (11732012_x_at) / Fold change /veh TNFAIP8L3 (11732012_x_at) / RFU MBOAT4 (11741988_at) / Fold change /veh MBOAT4 (11741988_at) / RFU 11764193_at / Fold change /veh 11764193_at / RFU TMEM53 (11763286_at) / Fold change /veh TMEM53 (11763286_at) / RFU MAGEB2 (11727129_at) / Fold change /veh MAGEB2 (11727129_at) / RFU TMEM200A (11744735_a_at) / Fold change /veh TMEM200A (11744735_a_at) / RFU CCDC152 (11751479_a_at) / Fold change /veh CCDC152 (11751479_a_at) / RFU FAM211A (11726209_a_at) / Fold change /veh FAM211A (11726209_a_at) / RFU RGS16 (11746705_a_at) / Fold change /veh RGS16 (11746705_a_at) / RFU VCAN (11755009_s_at) / Fold change /veh VCAN (11755009_s_at) / RFU RHOB (11743442_s_at) / Fold change /veh RHOB (11743442_s_at) / RFU RGS16 (11720943_a_at) / Fold change /veh RGS16 (11720943_a_at) / RFU RGS16 (11720944_at) / Fold change /veh RGS16 (11720944_at) / RFU, VPS4B / Fold change vs veh, VPS4B / RFU, CREB1 / Fold change vs veh, CREB1 / RFU, DNAJC13 / Fold change vs veh, DNAJC13 / RFU, GNAQ / Fold change vs veh, GNAQ / RFU, CDK5R1 / Fold change vs veh, CDK5R1 / RFU, ZRANB3 / Fold change vs veh, ZRANB3 / RFU, CUL4A / Fold change vs veh, CUL4A / RFU, CCNY / Fold change vs veh, CCNY / RFU, UFL1 / Fold change vs veh, UFL1 / RFU, COG3 / Fold change vs veh, COG3 / RFU, DIAPH2 / Fold change vs veh, DIAPH2 / RFU, SKA2 / Fold change vs veh, SKA2 / RFU, AFF3 / Fold change vs veh, AFF3 / RFU, LMF1 / Fold change vs veh, LMF1 / RFU, IPO11 / Fold change vs veh, IPO11 / RFU, DFFB / Fold change vs veh, DFFB / RFU, FOXP1 / Fold change vs veh, FOXP1 / RFU, CARD8 / Fold change vs veh, CARD8 / RFU, STRN3 / Fold change vs veh, STRN3 / RFU, ADK / Fold change vs veh, ADK / RFU, RASSF2 / Fold change vs veh, RASSF2 / RFU, WIPF1 / Fold change vs veh, WIPF1 / RFU, LARP1B / Fold change vs veh, LARP1B / RFU, RASA1 / Fold change vs veh, RASA1 / RFU, RB1 / Fold change vs veh, RB1 / RFU, PPFIA1 / Fold change vs veh, PPFIA1 / RFU, MAT2A / Fold change vs veh, MAT2A / RFU, CCT5 / Fold change vs veh, CCT5 / RFU, WDR92 / Fold change vs veh, WDR92 / RFU, CUX1 / Fold change vs veh, CUX1 / RFU, TTC7A / Fold change vs veh, TTC7A / RFU, TMEM135 / Fold change vs veh, TMEM135 / RFU, DEPTOR / Fold change vs veh, DEPTOR / RFU, CPM / Fold change vs veh, CPM / RFU, DNAJB6 / Fold change vs veh, DNAJB6 / RFU, CACNA2D3 / Fold change vs veh, CACNA2D3 / RFU, DTX4 / Fold change vs veh, DTX4 / RFU, TFCP2 / Fold change vs veh, TFCP2 / RFU, GMCL1 /// GMCL1P1 / Fold change vs veh, GMCL1 /// GMCL1P1 / RFU, AEBP2 / Fold change vs veh, AEBP2 / RFU, SNHG1 /// SNORD22 /// SNORD25 /// SNORD26 /// SNORD27 /// SNORD28 /// SNORD29 /// SNORD31 / Fold change vs veh, SNHG1 /// SNORD22 /// SNORD25 /// SNORD26 /// SNORD27 /// SNORD28 /// SNORD29 /// SNORD31 / Fold change (Aza/veh), C12orf56 (ProbeSet 11735607_a_at) / Fold change (ACY-1035/veh), C12orf56 (ProbeSet 11735607_a_at) / Fold change (Aza/veh), FGFR1OP (ProbeSet 11751329_s_at) / Fold change (ACY-1035/veh), FGFR1OP (ProbeSet 11751329_s_at) / Fold change (Aza/veh), VPS36 (ProbeSet 11739960_a_at) / Fold change (ACY-1035/veh), VPS36 (ProbeSet 11739960_a_at) / RFU SYPL1 (11715823_x_at) / Fold change /veh SYPL1 (11715823_x_at) / RFU IGFBP7 (11715501_s_at) / Fold change /veh IGFBP7 (11715501_s_at) / RFU REEP3 (11722064_at) / Fold change /veh REEP3 (11722064_at) / RFU IGLL1 (11728026_x_at) / Fold change /veh IGLL1 (11728026_x_at): dose or concentration left out as unconfirmed
# Conditions: ProbeSet 11722463_a_at; LIST B
smiles,measurement,value
Nc1ccc(-c2cccs2)cc1NC(=O)c1ccc2c(c1)cc(C1CC1)n2CCN1CCOCC1 [ACY-1035],"Fold change vs veh, TNKS2",0.96
